Test results from ChEMBL document CHEMBL1201862, “PubChem BioAssay data set” (2004).
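Protocol summary: plate cells (96-well), add compound at 5 concentrations, incubate 48 h, interpolate endpoints linearly. GI50 marks 50% less growth.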 Calls of active or inactive are those of the source. Cut-off read from the data, not from the text of the source: active = GI50 up to about 1.1 µM and inactive = higher.

Legend:
Assay in all cases: growth of human tumour cells (NCI), 48 h
PC-3 = test system: PC-3
Malme-3M = test system: Malme-3M
M14 = test system: M14
OVCAR-8 = test system: OVCAR-8
SW-620 = test system: SW-620
MDA-N = test system: MDA-N
OVCAR-5 = test system: OVCAR-5
SF-539 = test system: SF-539
K562 = test system: K562
HCT-15 = test system: HCT-15
ACHN = test system: ACHN
MOLT-4 = test system: MOLT-4
NCI-H23 = test system: NCI-H23
HT-29 = test system: HT-29
EKVX = test system: EKVX
SK-MEL-5 = test system: SK-MEL-5
RXF 393 = test system: RXF 393
SK-MEL-2 = test system: SK-MEL-2
HOP-92 = test system: HOP-92
BT-549 = test system: BT-549

[O-][S+](CCc1ccccc1)Nc1ccccc1 (stereo not given)
GI50 (PC-3): > 100 µM (inactive) | GI50 (Malme-3M): > 100 µM (inactive) | GI50 (M14): > 100 µM (inactive) | GI50 (OVCAR-8): > 100 µM (inactive) | GI50 (SW-620): > 100 µM (inactive) | GI50 (MDA-N): > 100 µM (inactive) | GI50 (OVCAR-5): > 100 µM (inactive) | GI50 (SF-539): > 100 µM (inactive) | GI50 (K562): > 100 µM (inactive) | GI50 (HCT-15): > 100 µM | GI50 (ACHN): > 100 µM (inactive) | GI50 (MOLT-4): > 100 µM (inactive) | GI50 (NCI-H23): > 100 µM (inactive) | GI50 (HT-29): > 100 µM (inactive) | GI50 (EKVX): > 100 µM (inactive) | GI50 (SK-MEL-5): > 100 µM (inactive) | GI50 (RXF 393): 55.5 µM (inactive)

Cn1c(N/N=C/c2ccccc2)nc(-c2ccc([N+](=O)[O-])cc2)c(C#N)c1=O
GI50 (PC-3): 59.6 µM (inactive) | GI50 (Malme-3M): 33.1 µM (inactive) | GI50 (M14): > 100 µM (inactive) | GI50 (OVCAR-8): 34.3 µM (inactive) | GI50 (SK-MEL-2): 34.4 µM (inactive) | GI50 (SW-620): 65.8 µM (inactive) | GI50 (MDA-N): 89.3 µM (inactive) | GI50 (OVCAR-5): 38.6 µM (inactive) | GI50 (SF-539): 69.2 µM (inactive) | GI50 (K562): 1.61 µM (inactive) | GI50 (HCT-15): 30.5 µM | GI50 (ACHN): > 100 µM (inactive) | GI50 (HOP-92): 16.5 µM (inactive) | GI50 (MOLT-4): 10.4 µM (inactive) | GI50 (NCI-H23): 44.3 µM (inactive) | GI50 (HT-29): 45.7 µM (inactive) | GI50 (EKVX): 66.7 µM (inactive) | GI50 (SK-MEL-5): 35.4 µM (inactive) | GI50 (RXF 393): 53.8 µM (inactive)

Cc1ccc2[nH]c(=N/c3ccccc3C)/c(=N\c3ccccc3C)[nH]c2c1
GI50 (PC-3): 31.3 µM (inactive) | GI50 (Malme-3M): 22.2 µM (inactive) | GI50 (M14): 43.8 µM (inactive) | GI50 (OVCAR-8): 34.3 µM (inactive) | GI50 (SK-MEL-2): 12.7 µM (inactive) | GI50 (SW-620): 32.3 µM (inactive) | GI50 (MDA-N): 25.5 µM (inactive) | GI50 (OVCAR-5): 21.5 µM (inactive) | GI50 (SF-539): 37.2 µM (inactive) | GI50 (K562): 23.8 µM (inactive) | GI50 (HCT-15): 22.3 µM | GI50 (ACHN): 31.3 µM (inactive) | GI50 (HOP-92): 19.4 µM (inactive) | GI50 (MOLT-4): > 100 µM (inactive) | GI50 (NCI-H23): 15.7 µM (inactive) | GI50 (HT-29): 23 µM (inactive) | GI50 (EKVX): 24.5 µM (inactive) | GI50 (SK-MEL-5): 22.1 µM (inactive) | GI50 (RXF 393): 17.3 µM (inactive)

COc1ccc(-c2c(C(C)=O)c(C)n(C3OC(COC(C)=O)C(OC(C)=O)C(OC(C)=O)C3OC(C)=O)c(=S)c2C#N)cc1 (stereo not given)
GI50 (PC-3): 45.2 µM (inactive) | GI50 (Malme-3M): > 100 µM (inactive) | GI50 (M14): > 100 µM (inactive) | GI50 (OVCAR-8): > 100 µM (inactive) | GI50 (SK-MEL-2): 29.9 µM (inactive) | GI50 (SW-620): 72.8 µM (inactive) | GI50 (MDA-N): > 100 µM (inactive) | GI50 (OVCAR-5): > 100 µM (inactive) | GI50 (SF-539): > 100 µM (inactive) | GI50 (K562): 68.5 µM (inactive) | GI50 (HCT-15): > 100 µM | GI50 (ACHN): > 100 µM (inactive) | GI50 (HOP-92): 15 µM (inactive) | GI50 (MOLT-4): 43 µM (inactive) | GI50 (NCI-H23): > 100 µM (inactive) | GI50 (HT-29): > 100 µM (inactive) | GI50 (SK-MEL-5): 63.1 µM (inactive) | GI50 (RXF 393): 80.7 µM (inactive)

O=c1c(Br)cc2c(-c3ccccc3)c3cc(Br)c(O)c(Br)c3oc-2c1Br
GI50 (PC-3): > 100 µM (inactive) | GI50 (Malme-3M): > 100 µM (inactive) | GI50 (M14): > 100 µM (inactive) | GI50 (OVCAR-8): > 100 µM (inactive) | GI50 (SW-620): > 100 µM (inactive) | GI50 (MDA-N): > 100 µM (inactive) | GI50 (OVCAR-5): > 100 µM (inactive) | GI50 (SF-539): 39.5 µM (inactive) | GI50 (K562): > 100 µM (inactive) | GI50 (HCT-15): 56 µM | GI50 (ACHN): > 100 µM (inactive) | GI50 (HOP-92): > 100 µM (inactive) | GI50 (MOLT-4): 29.1 µM (inactive) | GI50 (NCI-H23): > 100 µM (inactive) | GI50 (HT-29): 21.7 µM (inactive) | GI50 (EKVX): > 100 µM (inactive) | GI50 (SK-MEL-5): > 100 µM (inactive) | GI50 (RXF 393): > 100 µM (inactive)

COc1ccc(N[S+]([O-])CCc2ccccc2)cc1 (stereo not given)
GI50 (Malme-3M): > 100 µM (inactive) | GI50 (M14): > 100 µM (inactive) | GI50 (OVCAR-8): > 100 µM (inactive) | GI50 (SW-620): > 100 µM (inactive) | GI50 (MDA-N): > 100 µM (inactive) | GI50 (OVCAR-5): > 100 µM (inactive) | GI50 (SF-539): > 100 µM (inactive) | GI50 (K562): 73.3 µM (inactive) | GI50 (HCT-15): > 100 µM | GI50 (ACHN): > 100 µM (inactive) | GI50 (MOLT-4): > 100 µM (inactive) | GI50 (NCI-H23): > 100 µM (inactive) | GI50 (HT-29): > 100 µM (inactive) | GI50 (EKVX): > 100 µM (inactive) | GI50 (SK-MEL-5): > 100 µM (inactive) | GI50 (RXF 393): > 100 µM (inactive)

Cc1ncc([N+](=O)[O-])n1CCNC(=O)CCCn1cnc([N+](=O)[O-])n1
GI50 (PC-3): > 100 µM (inactive) | GI50 (Malme-3M): > 100 µM (inactive) | GI50 (M14): > 100 µM (inactive) | GI50 (OVCAR-8): > 95.9 µM (inactive) | GI50 (SK-MEL-2): > 90.8 µM (inactive) | GI50 (SW-620): > 71.8 µM (inactive) | GI50 (MDA-N): > 100 µM (inactive) | GI50 (OVCAR-5): > 100 µM (inactive) | GI50 (SF-539): > 100 µM (inactive) | GI50 (K562): > 100 µM (inactive) | GI50 (HCT-15): > 76.6 µM | GI50 (ACHN): > 100 µM (inactive) | GI50 (HOP-92): > 100 µM (inactive) | GI50 (MOLT-4): > 100 µM (inactive) | GI50 (NCI-H23): > 100 µM (inactive) | GI50 (HT-29): > 100 µM (inactive) | GI50 (EKVX): > 31.6 µM (inactive) | GI50 (SK-MEL-5): > 72.4 µM (inactive) | GI50 (RXF 393): > 100 µM (inactive)

CC1CSc2nc3nc(S)nc-3c(O)n2C1 (stereo not given)
GI50 (Malme-3M): > 100 µM (inactive) | GI50 (OVCAR-8): > 100 µM (inactive) | GI50 (SW-620): > 100 µM (inactive) | GI50 (BT-549): > 100 µM (inactive) | GI50 (OVCAR-5): > 100 µM (inactive) | GI50 (SF-539): > 100 µM (inactive) | GI50 (K562): > 100 µM (inactive) | GI50 (HCT-15): > 100 µM | GI50 (ACHN): > 100 µM (inactive) | GI50 (MOLT-4): > 100 µM (inactive) | GI50 (NCI-H23): > 100 µM (inactive) | GI50 (EKVX): > 100 µM (inactive) | GI50 (SK-MEL-5): > 100 µM (inactive) | GI50 (RXF 393): > 100 µM (inactive)
